The source of these data is patent publication US11219658B2, “Composition for preventing or treating diseases caused by caffeine abuse including Evodia officinalis extract or evodiamine as active ingredient” (priority 2016, dated 2022).

Marks after values point to notes of the source that are not given here.

The test system of assay [1] is mouse model having somnipathy caused by caffeine abuse. Briefly: Caffeine-induced somnipathy, Entobar (pentobarbital)-induced sleep onset and sleep duration. Type of assay: in vivo, ICR male mice. The conditions noted are these: for Change in sleep onset (% of Control) / Change in total sleep duration (% of Control): vehicle control = 100. The procedure: (§1) 4-week-old ICR male mice (20 to 22 g) were provided from Koatech (Pyeongtaek, Korea), acclimated by breeding for 1 week or more in an animal breeding room in the School of Pharmacy at Sungkyunkwan University, and freely fed water and feed. The temperature (23±2° C.), humidity (55±10%) and a dark/light cycle (12 hrs) were automatically controlled.
Specifically, the first group was a group treated with 10% DMSO-containing distilled water and 40 mg/kg of Entobar® as a control, the second group was a group treated with 10% DMSO-containing distilled water, 50 mg/kg of caffeine and 40 mg/kg of Entobar®, the third group was a group treated with 200 mg/kg of the Evodia officinalis extract, 50 mg/kg of caffeine and 40 mg/kg of Entobar®, and the fourth group was a group treated with 400 mg/kg of the Evodia officinalis extract, 50 mg/kg of caffeine and 40 mg/kg of Entobar®.
Regarding the administration method, the Evodia officinalis extract was dissolved in 10% DMSO-containing distilled water, orally administered to the mice at doses of 0, 200 and 400 mg/kg once a day for three days, and 30 minutes after the final administration. 50 mg/kg of caffeine was intraperitoneally injected into the mice. Thirty minutes after the caffeine injection, 40 mg/kg of Entobar® was intraperitoneally injected to induce sleep. Immediately after the Entobar® injection, the mice were put into each cage, and then sleep onset and sleep duration were measured.
To compare caffeine-induced somnipathy-improving effects of the Evodia officinalis extract and evodiamine, the Evodia officinalis hot water extract prepared in Example 3, ethanol extract thereof and evodiamine were orally administered to the mice prepared in Example 2 once a day for 3 days. 30 minutes after the final administration, 50 mg/kg of caffeine was intraperitoneally injected into the mice. After thirty minutes. 40 mg/kg of Entobar® was intraperitoneally injected to induce sleep, followed by measuring sleep onset and total sleep duration.

The subject of assay [2] is mouse model having motor activity increased by central nervous system stimulation due to caffeine abuse. The assay is described as follows: Caffeine-induced central nervous system stimulation, motor activity in motor ability measurement box. Type of assay: in vivo, ICR male mice. Particulars: for excitatory motor activity count (center count), percentage of movement in the center of the box: solvent control 16%; for excitatory motor activity time (center time), percentage of maintenance in the center of the box: solvent control 3%; for total movement of excitatory motor activity: solvent control 7,107 cm. On the procedure: as §1
To measure an inhibitory effect of evodiamine on caffeine-induced central nervous system stimulation, the mice prepared in Example 2 were divided into four groups of 12 mice, and treated with evodiamine and caffeine in a different manner. The first group was a group treated with distilled water containing 10% DMSO (control), the second group was a group treated with 10% DMSO-containing distilled water and 10 mg/kg of caffeine, the third group was a group treated with 10 mg/kg of evodiamine and 10 mg/kg of caffeine, and the fourth group was a group treated with 20 mg/kg of evodiamine and 10 mg/kg of caffeine.
Evodiamine was dissolved in 10% DMSO-containing distilled water, and orally administered to mice at doses of 0, 10 and 20 mg/kg, and 30 minutes later, intraperitoneally injected with caffeine 10 mg/kg of caffeine. Then, after 30 minutes, the mice were put into a motor ability measurement box (diameter: 30×30×30 (cm)), and measured for a total of 60 minutes using a video measurement and analysis system (Neurovision, Busan, Korea), followed by conversion of the improvement or inhibition in an increased excitatory motor activity count (center count), excitatory motor activity time (center time) and total movement of excitatory motor activity (total movement) to percentage (%).

Setting [3] is: caffeine 50 mg/kg i.p. alone + Entobar 40 mg/kg i.p.
The mark [4] stands for this setting: evodiamine 5 mg/kg p.o. once a day for 3 days + caffeine 50 mg/kg i.p. + Entobar 40 mg/kg i.p.
Setting [5] is: evodiamine 10 mg/kg p.o. once a day for 3 days + caffeine 50 mg/kg i.p. + Entobar 40 mg/kg i.p.

Consider `Cn1c(=O)c2c(ncn2C)n(C)c1=O` [caffeine, 1,3,7-trimethylxanthine], for which the sleep onset in assay [1] (caffeine 50 mg/kg i.p. + Entobar 40 mg/kg i.p., control without caffeine 219 seconds) amounted to 371 s. Also, the sleep duration in assay [1] (caffeine 50 mg/kg i.p. + Entobar 40 mg/kg i.p., control without caffeine 2,940 seconds) is on record as 1,812 seconds. Besides, in assay [1] (setting [3]), the “Change in sleep onset (% of Control)” value is 166.8 *** % of Control and the “Change in total sleep duration (% of Control)” value was 57.4 ** % of Control. The “excitatory motor activity count (center count), percentage of movement in the center of the box” value in assay [2] (caffeine 10 mg/kg i.p. alone (10% DMSO vehicle p.o.), 60 min measurement) was determined as 23%. Moreover, in assay [2] (caffeine 10 mg/kg i.p. alone), the “excitatory motor activity time (center time), percentage of maintenance in the center of the box” value was determined as 9% and the “total movement of excitatory motor activity” value is 15,078 cm.
Take `CN1c2ccccc2C(=O)N2CCc3c([nH]c4ccccc34)C21` (centres unmarked) [evodiamine]: the results for the “Change in sleep onset (% of Control)” value in assay [1] (setting [4]) and in assay [1] (setting [5]) were 138.7 % of Control and 108.2 # % of Control, respectively. Besides, the “Change in total sleep duration (% of Control)” value is recorded as 100.5 # % of Control in assay [1] (setting [4]) and 94.0 % of Control in assay [1] (setting [5]). Moreover, the “excitatory motor activity time (center time), percentage of maintenance in the center of the box” value came to 7% in assay [2] (evodiamine 10 mg/kg p.o. + caffeine 10 mg/kg i.p., caffeine control 9%) and 5% in assay [2] (evodiamine 20 mg/kg p.o. + caffeine 10 mg/kg i.p., caffeine control 9%). In addition, the “excitatory motor activity count (center count), percentage of movement in the center of the box” value in assay [2] (evodiamine 10 mg/kg p.o. + caffeine 10 mg/kg i.p., caffeine control 23%) is 20%; in assay [2] (evodiamine 20 mg/kg p.o. + caffeine 10 mg/kg i.p., caffeine control 23%), 19%. Further, the “total movement of excitatory motor activity” value is reported as 12,734 cm in assay [2] (evodiamine 10 mg/kg p.o. + caffeine 10 mg/kg i.p., caffeine control 15,078 cm) and 10,910 cm in assay [2] (evodiamine 20 mg/kg p.o. + caffeine 10 mg/kg i.p., caffeine control 15,078 cm).
